# Data as given in patent US8329904B2, “Azacyclic derivatives” (Hoffmann-La Roche Inc., priority 2009, dated 2012).
# Molecular target: T1, human HSL (Homo sapiens, UniProt Q05469)
# T1 construct: overlapping PCR to generate a full length human HSL ORF with a 3′-His6 tag; His6 (C); made in house; host or cells: High 5 insect cells (baculovirus, pFast-BAC)
# T1 sequence (Q05469 1-1076): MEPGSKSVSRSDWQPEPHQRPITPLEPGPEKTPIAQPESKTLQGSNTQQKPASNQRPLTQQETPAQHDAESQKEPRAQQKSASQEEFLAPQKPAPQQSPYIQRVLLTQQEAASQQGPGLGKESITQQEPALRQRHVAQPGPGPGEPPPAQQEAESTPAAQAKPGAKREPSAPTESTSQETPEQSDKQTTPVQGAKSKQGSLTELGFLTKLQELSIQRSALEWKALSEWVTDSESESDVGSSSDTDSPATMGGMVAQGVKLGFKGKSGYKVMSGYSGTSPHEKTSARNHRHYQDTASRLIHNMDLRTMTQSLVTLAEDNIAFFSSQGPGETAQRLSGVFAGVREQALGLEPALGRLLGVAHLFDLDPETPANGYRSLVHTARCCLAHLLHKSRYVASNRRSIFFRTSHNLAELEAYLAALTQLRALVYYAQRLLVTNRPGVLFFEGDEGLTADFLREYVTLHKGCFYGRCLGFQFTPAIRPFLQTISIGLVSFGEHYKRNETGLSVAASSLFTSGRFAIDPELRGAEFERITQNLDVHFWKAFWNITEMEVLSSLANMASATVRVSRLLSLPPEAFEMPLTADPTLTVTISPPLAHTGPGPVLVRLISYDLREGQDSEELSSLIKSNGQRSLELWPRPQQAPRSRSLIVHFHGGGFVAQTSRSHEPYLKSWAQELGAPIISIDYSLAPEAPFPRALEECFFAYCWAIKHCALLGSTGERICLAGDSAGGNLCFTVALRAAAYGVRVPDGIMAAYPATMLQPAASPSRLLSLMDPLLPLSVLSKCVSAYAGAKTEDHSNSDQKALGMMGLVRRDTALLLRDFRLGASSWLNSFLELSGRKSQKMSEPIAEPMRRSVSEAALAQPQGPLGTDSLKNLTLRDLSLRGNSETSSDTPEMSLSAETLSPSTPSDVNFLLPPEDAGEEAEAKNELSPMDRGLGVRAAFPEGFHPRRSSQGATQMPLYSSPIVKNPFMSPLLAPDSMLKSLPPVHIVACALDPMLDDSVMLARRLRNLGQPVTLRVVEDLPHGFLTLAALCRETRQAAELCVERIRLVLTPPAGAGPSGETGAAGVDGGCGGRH
# Experiment: Human Hormone-Sensitive Lipase (HSL) Enzyme Inhibition Assay
# Format: biochemical
# Details: colorimetric assay, 2,3-dimercapto-1-propanol tributyrate (DMPT) substrate, 37° C. for 20 minutes, absorbance at 405 nm; read-out: HSL hum IC50
# Method in brief: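 Colorimetric thioester hydrolysis: compounds in DMSO series mixed with DMPT (1.5 mM) in MOPS pH 7.2 with BSA, then baculovirus-expressed His6-tagged full-length human HSL added, 37° C, 20 min. DTNB plus detergents added, 15 min room temperature, absorbance at 405 nm.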
row,IC50,Compound
1,220 nM,"CCCN(CC)C(=O)N1CCC2(CC1)CCN(c1ccc(OC(F)(F)F)cc1)C2=O [Example 268, 1-Oxo-2-(4-trifluoromethoxy-phenyl)-2,8-diaza-spiro[4.5]decane-8-carboxylic acid ethyl-propyl-amide]"
2,70 nM,"CCCCN(C)C(=O)N1CCC2(CC1)CCN(c1ccc(OC(F)(F)F)cc1)C2=O [Example 269, 1-Oxo-2-(4-trifluoromethoxy-phenyl)-2,8-diaza-spiro[4.5]decane-8-carboxylic acid butyl-methyl-amide]"
3,70 nM,"CC(C)CN(C)C(=O)N1CCC2(CC1)CCN(c1ccc(OC(F)(F)F)cc1)C2=O [Example 270, 1-Oxo-2-(4-trifluoromethoxy-phenyl)-2,8-diaza-spiro[4.5]decane-8-carboxylic acid isobutyl-methyl-amide]"
4,220 nM,"O=C(N1CCCCCC1)N1CCC2(CC1)CCN(c1ccc(OC(F)(F)F)cc1)C2=O [Example 271, 8-(Azepane-1-carbonyl)-2-(4-trifluoromethoxy-phenyl)-2,8-diaza-spiro[4.5]decan-1-one]"
5,100 nM,"CC1CCCCN1C(=O)N1CCC2(CC1)CCN(c1ccc(OC(F)(F)F)cc1)C2=O (centres unmarked) [Example 272, 8-(2-Methyl-piperidine-1-carbonyl)-2-(4-trifluoromethoxy-phenyl)-2,8-diaza-spiro[4.5]decan-1-one]"
6,80 nM,"CCCCCN(C)C(=O)N1CCC2(CC1)CCN(c1ccc(OC(F)(F)F)cc1)C2=O [Example 273, 1-Oxo-2-(4-trifluoromethoxy-phenyl)-2,8-diaza-spiro[4.5]decane-8-carboxylic acid methyl-pentyl-amide]"
7,140 nM,"CCN(CCOC)C(=O)N1CCC2(CC1)CCN(c1ccc(OC(F)(F)F)cc1)C2=O [Example 274, 1-Oxo-2-(4-trifluoromethoxy-phenyl)-2,8-diaza-spiro[4.5]decane-8-carboxylic acid ethyl-(2-methoxy-ethyl)-amide]"
8,60 nM,"CN(C(=O)N1CCC2(CC1)CCN(c1ccc(OC(F)(F)F)cc1)C2=O)c1ccccc1 [Example 275, 1-Oxo-2-(4-trifluoromethoxy-phenyl)-2,8-diaza-spiro[4.5]decane-8-carboxylic acid methyl-phenyl-amide]"
9,70 nM,"CN(C(=O)N1CCC2(CC1)CCN(c1ccc(OC(F)(F)F)cc1)C2=O)C1CCCCC1 [Example 276, 1-Oxo-2-(4-trifluoromethoxy-phenyl)-2,8-diaza-spiro[4.5]decane-8-carboxylic acid cyclohexyl-methyl-amide]"
10,260 nM,"O=C(N1CCC2(CC1)CCN(c1ccc(OC(F)(F)F)cc1)C2=O)N1Cc2ccccc2C1 [Example 277, 8-(1,3-Dihydro-isoindole-2-carbonyl)-2-(4-trifluoromethoxy-phenyl)-2,8-diaza-spiro[4.5]decan-1-one]"
11,120 nM,"CN(Cc1ccccc1)C(=O)N1CCC2(CC1)CCN(c1ccc(OC(F)(F)F)cc1)C2=O [Example 278, 1-Oxo-2-(4-trifluoromethoxy-phenyl)-2,8-diaza-spiro[4.5]decane-8-carboxylic acid benzyl-methyl-amide]"
12,40 nM,"CCN(C(=O)N1CCC2(CC1)CCN(c1ccc(OC(F)(F)F)cc1)C2=O)c1ccccc1 [Example 279, 1-Oxo-2-(4-trifluoromethoxy-phenyl)-2,8-diaza-spiro[4.5]decane-8-carboxylic acid ethyl-phenyl-amide]"
13,90 nM,"CN(C(=O)N1CCC2(CC1)CCN(c1ccc(OC(F)(F)F)cc1)C2=O)c1cccc(F)c1 [Example 280, 1-Oxo-2-(4-trifluoromethoxy-phenyl)-2,8-diaza-spiro[4.5]decane-8-carboxylic acid (3-fluoro-phenyl)-methyl-amide]"
14,110 nM,"O=C(N1CCC2(CC1)CCN(c1ccc(OC(F)(F)F)cc1)C2=O)N1CCCc2ccccc21 [Example 281, 8-(3,4-Dihydro-2H-quinoline-1-carbonyl)-2-(4-trifluoromethoxy-phenyl)-2,8-diaza-spiro[4.5]decan-1-one]"
15,130 nM,"CN(CCc1ccccc1)C(=O)N1CCC2(CC1)CCN(c1ccc(OC(F)(F)F)cc1)C2=O [Example 282, 1-Oxo-2-(4-trifluoromethoxy-phenyl)-2,8-diaza-spiro[4.5]decane-8-carboxylic acid methyl-phenethyl-amide]"
16,140 nM,"CN(CCc1ccccn1)C(=O)N1CCC2(CC1)CCN(c1ccc(OC(F)(F)F)cc1)C2=O [Example 283, 1-Oxo-2-(4-trifluoromethoxy-phenyl)-2,8-diaza-spiro[4.5]decane-8-carboxylic acid methyl-(2-pyridin-2-yl-ethyl)-amide]"
17,150 nM,"CCN(CCc1ccccn1)C(=O)N1CCC2(CC1)CCN(c1ccc(OC(F)(F)F)cc1)C2=O [Example 284, 1-Oxo-2-(4-trifluoromethoxy-phenyl)-2,8-diaza-spiro[4.5]decane-8-carboxylic acid ethyl-(2-pyridin-2-yl-ethyl)-amide]"
18,70 nM,"CC(C)NS(=O)(=O)N1CCC2(CCN(c3ccc(OC(F)(F)F)cc3)C2=O)CC1 [Example 285, 1-Oxo-2-(4-trifluoromethoxy-phenyl)-2,8-diaza-spiro[4.5]decane-8-sulfonic acid isopropylamide]"
19,60 nM,"O=C1N(c2ccc(OC(F)(F)F)cc2)CCC12CCN(S(=O)(=O)Nc1ccccc1)CC2 [Example 286, 1-Oxo-2-(4-trifluoromethoxy-phenyl)-2,8-diaza-spiro[4.5]decane-8-sulfonic acid phenylamide]"
20,50 nM,"O=C1N(c2ccc(OC(F)(F)F)cc2)CCC12CCN(S(=O)(=O)NCc1ccccc1)CC2 [Example 287, 1-Oxo-2-(4-trifluoromethoxy-phenyl)-2,8-diaza-spiro[4.5]decane-8-sulfonic acid benzylamide]"
21,150 nM,"CC(CNS(=O)(=O)N1CCC2(CCN(c3ccc(OC(F)(F)F)cc3)C2=O)CC1)c1ccccc1 (centres unmarked) [Example 288, 1-Oxo-2-(4-trifluoromethoxy-phenyl)-2,8-diaza-spiro[4.5]decane-8-sulfonic acid (2-phenyl-propyl)-amide]"
22,230 nM,"COCCNS(=O)(=O)N1CCC2(CCN(c3ccc(OC(F)(F)F)cc3)C2=O)CC1 [Example 289, 1-Oxo-2-(4-trifluoromethoxy-phenyl)-2,8-diaza-spiro[4.5]decane-8-sulfonic acid (2-methoxy-ethyl)-amide]"
23,160 nM,"CCNS(=O)(=O)N1CCC2(CCN(c3ccc(OC(F)(F)F)cc3)C2=O)CC1 [Example 290, 1-Oxo-2-(4-trifluoromethoxy-phenyl)-2,8-diaza-spiro[4.5]decane-8-sulfonic acid ethylamide]"
24,90 nM,"CCN(CC)S(=O)(=O)N1CCC2(CCN(c3ccc(OC(F)(F)F)cc3)C2=O)CC1 [Example 291, 1-Oxo-2-(4-trifluoromethoxy-phenyl)-2,8-diaza-spiro[4.5]decane-8-sulfonic acid diethylamide]"
25,200 nM,"CN(CCO)S(=O)(=O)N1CCC2(CCN(c3ccc(OC(F)(F)F)cc3)C2=O)CC1 [Example 292, 1-Oxo-2-(4-trifluoromethoxy-phenyl)-2,8-diaza-spiro[4.5]decane-8-sulfonic acid (2-hydroxy-ethyl)-methyl-amide]"
26,80 nM,"CC(C)CN(C)S(=O)(=O)N1CCC2(CCN(c3ccc(OC(F)(F)F)cc3)C2=O)CC1 [Example 293, 1-Oxo-2-(4-trifluoromethoxy-phenyl)-2,8-diaza-spiro[4.5]decane-8-sulfonic acid isobutyl-methyl-amide]"
